Experimental data: patent US20220031713A1, “METHODS OF TREATING MYELOPROLIFERATIVE DISORDERS” (Impact Biomedicines, Inc., priority 2018, published 2022)
Where two headings read alike, the source gives them in different places.

What was measured:
[1] = system: myelofibrosis; settings: week 24, subgroup with prior ruxolitinib, cited from earlier work
[2] = system: circulating cytokines; settings: MF patients not previously treated with JAK inhibitors; cited from earlier work
[3] = system: JAK2V617F; settings: MF patients; cited from earlier work
[4] = system: cells expressing constitutively active JAK2; test: Apoptosis in cells expressing constitutively active JAK2; format: cell-based; settings: cellular assays
[5] = system: T cell development; settings: non-clinical data; cited from earlier work
[6] = system: JAK2V617F; settings: non-clinical models of MF; cited from earlier work
[7] = system: PD-L1 expression in lymphoma tumor cells; settings: cited from earlier work
[8] = system: hematopoietic progenitors isolated from myeloproliferative neoplasm (MPN) patients; test: Erythroid colony formation of hematopoietic progenitors; format: cell-based, human
[9] = system: intermediate-2 or high-risk MF; settings: cited from earlier work
[10] = system: intermediate-1 with symptoms, intermediate-2 or high-risk MPN-associated myelofibrosis; settings: cited from earlier work
[11] = system: JAK2 signaling; test: Cellular assay of JAK2 signaling; format: cell-based; settings: cellular assays
[12] = system: graft-versus-host disease (GVHD); settings: cited from earlier work
[13] = system: cellular proliferation driven by mutant JAK2 or mutant MPL; test: Cellular proliferation driven by mutant JAK2 or mutant MPL; format: cell-based; settings: cellular assays
[14] = system: intermediate or high-risk MPN-associated myelofibrosis (MF); settings: cited from earlier work
[15] = system: bone marrow fibrosis; settings: at 24 months; cited from earlier work
[16] = system: MPN-associated myelofibrosis; settings: cited from earlier work
[17] = system: intermediate or high-risk MPN-associated myelofibrosis (MF); settings: at 24 weeks, COMFORT-I; cited from earlier work
[18] = system: myelofibrosis; settings: cited from earlier work
[19] = system: PD-L1 expression in MPN myeloid cells; settings: cited from earlier work
[20] = system: MF; settings: week 24; previous ruxolitinib treatment; cited from earlier work
[21] = patients previously treated with ruxolitinib
[22] = ruxolitinib therapy, compared with BAT

Q: Which “subjects with spleen volume response of 35% or more” value (“subjects … of 35% or more” for short) ([1]; 200 mg twice daily) does the source give for `C1=C/COCc2cc(ccc2OCCN2CCCC2)Nc2nccc(n2)-c2cccc(c2)COC/1` [pacritinib] here?
A: Its value is 13%.

Q: And the “subjects … of 35% or more” value ([1]; 400 mg once daily)?
A: Its value is 6%.

Q: With `Cc1cnc(Nc2ccc(OCCN3CCCC3)cc2)nc1Nc1cccc(S(=O)(=O)NC(C)(C)C)c1` [Compound I, fedratinib] as the compound, how does the “effect on circulating cytokines” value [2] read?
A: The value was “modulate circulating cytokines”.

Q: And the JAK2V617F frequency [3]?
A: Its JAK2V617F frequency is “decrease JAK2V617F frequency”.

Q: And the “apoptosis in cells expressing constitutively active JAK2” value [4]?
A: The value was “induces apoptosis”.

Q: What about the “effect on T cell development” value [5] of the same compound?
A: The value was “weak effect”.

Q: And the JAK2V617F frequency [6]?
A: The JAK2V617F frequency was “decrease JAK2V617F frequency”.

Q: And the “effect on PD-L1 expression” value [7]?
A: Its value is “modulate PD-L1 expression”.

Q: What about the “erythroid colony formation of hematopoietic progenitors” value [8] of the same compound?
A: The value was “inhibits erythroid colony formation”.

Q: And the TEAE diarrhea ([9]; 400 mg daily, all grades)?
A: The TEAE diarrhea was 65.6%.

Q: And the TEAE fatigue ([9]; 400 mg daily, all grades)?
A: The TEAE fatigue was 15.6%.

Q: What about the TEAE nausea ([9]; 400 mg daily, all grades) of the same compound?
A: Its TEAE nausea is 63.5%.

Q: What about the TEAE peripheral edema ([9]; 400 mg daily, all grades) of the same compound?
A: Its TEAE peripheral edema is 15.6%.

Q: And the TEAE vomiting ([9]; 400 mg daily, all grades)?
A: The TEAE vomiting was 41.7%.

Q: What about the “TEAE anemia (G3 and G4)” value ([9]; 400 mg daily) of the same compound?
A: The value was 42.7%.

Q: And the “response rate at Cycle 6 as recommended by IWG-MRT (regardless of confirmation)” value ([9]; 400 mg daily)?
A: The value was 46.9%.

Q: What about the “response rate per primary endpoint (≥35% reduction in spleen volume to End of Cycle 6, confirmed 4 weeks later by MRI)” value ([9]; 400 mg daily) of the same compound?
A: Its value is 36.5%.

Q: And the “TEAEs leading to permanent treatment discontinuation” value ([9]; 400 mg)?
A: Its value is 27.1%.

Q: And the “subjects achieving a ≥50% reduction in TSS” value ([9]; 400 mg)?
A: Its value is 36.3%.

Q: What about the “subjects reporting Grade 3 or 4 TEAEs” value ([9]; 400 mg) of the same compound?
A: Its value is 70.8%.

Q: What about the “treatment-emergent serious adverse events (SAEs)” value ([9]; 400 mg) of the same compound?
A: The value was 38.5%.

Q: And the “response rate at Cycle 6 as recommended by IWG-MRT (regardless of confirmation)” value ([9]; 500 mg daily)?
A: The value was 49.5%.

Q: And the “response rate per primary endpoint (≥35% reduction in spleen volume to End of Cycle 6, confirmed 4 weeks later by MRI)” value ([9]; 500 mg daily)?
A: The value was 40.2%.

Q: And the “TEAEs leading to permanent treatment discontinuation” value ([9]; 500 mg)?
A: Its value is 36.1%.

Q: And the “subjects achieving a ≥50% reduction in TSS” value ([9]; 500 mg)?
A: Its value is 34.1%.

Q: What about the “subjects reporting Grade 3 or 4 TEAEs” value ([9]; 500 mg) of the same compound?
A: Its value is 78.4%.

Q: What about the “treatment-emergent serious adverse events (SAEs)” value ([9]; 500 mg) of the same compound?
A: The value was 44.3%.

Q: What about the “median duration of response (≥35% reduction in spleen volume)” value ([9]; responders from both active groups (400-mg and 500-mg)) of the same compound?
A: Its value is 10.4 months.

Q: And the “patients with at least 1 TEAE (all grades)” value ([10]; 97 patients)?
A: The value was 97 patients.

Q: What about the TEAE anemia ([10]; all grades) of the same compound?
A: Its TEAE anemia is 48.5%.

Q: What about the TEAE diarrhea ([10]; all grades) of the same compound?
A: Its TEAE diarrhea is 61.9%.

Q: What about the TEAE nausea ([10]; all grades) of the same compound?
A: Its TEAE nausea is 55.7%.

Q: And the TEAE thrombocytopenia ([10]; all grades)?
A: The TEAE thrombocytopenia was 26.8%.

Q: And the TEAE vomiting ([10]; all grades)?
A: Its TEAE vomiting is 41.2%.

Q: What about the “Grade 3 or 4 anemia” value ([10]; in vivo) of the same compound?
A: The value was “Thirty-eight and one-tenth”.

Q: What about the “Grade 3 or 4 thrombocytopenia” value ([10]; in vivo) of the same compound?
A: The value was 21.6%.

Q: What about the “grade 5 hematologic TEAEs” value ([10]; in vivo) of the same compound?
A: Its value is “No grade 5 hematologic TEAEs were reported”.

Q: What about the “patients reporting Grade 3 or 4 TEAEs” value ([10]; in vivo) of the same compound?
A: Its value is 62.9%.

Q: What about the “overall spleen response rate (≥35% reduction from baseline in spleen volume to the End of Cycle 6)” value [10, 21] of the same compound?
A: The value was 55.4%.

Q: What about the “subjects achieving a ≥50% reduction in TSS” value [10, 21] of the same compound?
A: The value was 25.6%.

Q: What about the “effect on JAK2 signaling” value [11] of the same compound?
A: Its value is “inhibits JAK2 signaling”.

Q: What about the “effect on GVHD” value ([12]; non-clinical data) of the same compound?
A: Its value is “weak effect”.

Q: And the “effect on cellular proliferation driven by mutant JAK2 or mutant MPL” value [13]?
A: Its value is “inhibits”.

Q: Which “proportion of subjects exhibiting a ≥35% reduction in spleen volume as measured by MRI” value ([14]; at 48 weeks, COMFORT-II) does the source give for `N#CC[C@H](C1CCCC1)n1cc(-c2ncnc3[nH]ccc23)cn1` [ruxolitinib, (3R)-3-cyclopentyl-3-[4-(7H-pyrrolo[2,3-d]pyrimidin-4-yl)pyrazol-1-yl]propanenitrile] here?
A: The value was 28.5%.

Q: What about the “Kaplan-Meier estimated probability of survival” value ([14]; at 144 weeks, COMFORT-II 3-year follow-up) of the same compound?
A: Its value is 81%.

Q: What about the “subjects with improvement in bone marrow fibrosis” value [15] of the same compound?
A: Its value is 15%.

Q: What about the “time after therapy initiation within which responses are typically observed” value ([16]; in vivo) of the same compound?
A: The value was 3-6 months.

Q: What about the treatment-associated anemia [16, 22] of the same compound?
A: Its treatment-associated anemia is 40.4%.

Q: And the treatment-associated thrombocytopenia [16, 22]?
A: Its treatment-associated thrombocytopenia is 44.5%.

Q: And the “proportion of subjects exhibiting a ≥35% reduction in spleen volume as measured by MRI” value [17]?
A: Its value is 41.9%.

Q: And the “subjects with >50% improvement in MFSAF Total Symptom Score (TSS)” value [17]?
A: The value was 45.9%.

Q: What about the “median survival of relapsed and refractory patients who discontinued ruxolitinib” value ([18]; after ruxolitinib discontinuation) of the same compound?
A: Its value is 6 months.

Q: What about the patients remaining alive ([18]; median follow-up of 10 months from stopping ruxolitinib) of the same compound?
A: The patients remaining alive was 34%.

Q: What about the “effect on graft-versus-host disease (GVHD)” value ([12]; preclinical and clinical data) of the same compound?
A: The value was “suppressing graft-versus-host disease”.

Q: And the “effect on PD-L1 expression” value [19]?
A: The value was “modulate PD-L1 expression”.

Q: Which “subjects … of 35% or more” value [20] does the source give for `N#CCNC(=O)c1ccc(-c2ccnc(Nc3ccc(N4CCOCC4)cc3)n2)cc1` [momelotinib] here?
A: The value was 7%.
